Measurements as given in US10864296B2, “Polypeptide and hyaluronic acid coatings” (INSTITUT NATIONAL DE LA SANTE ET DE LA RECHERCHE MEDICALE …, priority 2017, dated 2020).
Several values for one entry are separate records, joined by “and”; a condition that tells them apart may be missing. Identical values can stand only once.

Tests used:
[1] = Fluorescence recovery after photobleaching (FRAP) of PAR-FITC in (PAR/HA)24 multilayers; format: physicochemical; conditions: PAR-FITC in (PAR/HA)24 multilayer, hydrochloride
Experimental: The diffusion coefficient, D, and the proportion of mobile molecules, p, was measured for (PAR/HA)24 multilayers containing PAR-FITC by performing photobleaching experiments (FRAP, Fluorescence Recovery After Photobleaching).
A glass slide coated with the multilayer was introduced in a home-made sample holder and immerged in 200 μl of Tris-NaCl buffer. One circular regions (4.4 μm in radius and referred as “R4” in an image of 35 μm×35 μm or 10.6 μm in radius and referred as “R10” in an image of 85 μm×85 μm) were exposed for 700 msec to the laser light set at its maximum power (λ=488 nm). Then, the recovery of the fluorescence in the bleached area was observed over time. Observations were carried out with a Zeiss LSM 710 microscope (Heidelberg, Germany) using a 20× objective (Zeiss, Plan Apochromat).
Then the inventors investigated if the bactericidal activity of the PAR30/HA multilayer is related to the mobility of these chains in the films. Indeed, it is known that the exponential character of a multilayer is related to the diffusion ability of at least one of its constituents in and out of the film during each deposition step. They first determined the mobility of the different chains, PAR10, PAR30, PAR100 and PAR200 in the (PAR/HA)24 multilayer by using FRAP method. […] Recovery of fluorescence appears very fast for PAR10 and PAR30 compare to PAR100 or PAR200. From these curves we can deduce the percentage of mobile chains over the timescale of the experiments. It clearly appears that PAR10 and PAR30 chains are more mobile (between 85 to 90% of mobile fraction) than the PAR100 (only 63% of mobile fraction). The largest chains PAR200 correspond to the slowest with about 12% of the population which is mobile (FIG. 8). Accordingly, the fraction of mobile chains dramatically decreases when the chain length increases from 30 to 100 or 200 residues.

S. aureus [2] = experiment: Minimal inhibitory concentration (MIC) of PAR in solution, 24 h in MHB medium with S. aureus; format: cell-based, Staphylococcus aureus; conditions: for bacterial growth inhibition in solution: PAR 1 μM; for times less active than PAR100 or PAR200 chains (from MICs in solution): per chain
Experimental: PAR with 10, 30, 100 or 200 arginine residues per chain were tested. Each PAR was incubated 24 h at 37° C. in 300 μL of MHB medium with S. aureus (A620=0.001). Pathogen growth of 0% corresponds to medium with antibiotics (and without PAR) and 100% to medium without PAR. Each value corresponds to the mean value of 3 individual experiments (3 samples per experiment and condition) and error bars correspond to standard deviations. For each concentration, the first column represents the normalized pathogen growth of S. aureus for PAR10, the 2nd column for PAR30, the third column for PAR100 and the fourth for PAR200.
Staphylococcus aureus (S. aureus, ATCC 25923) strains were used to assess the antibacterial properties of the test samples. Bacterial strain was cultured aerobically at 37° C. in a Mueller Hinton Broth (MHB) medium (Merck, Germany), pH 7.4. One colony was transferred to 10 mL of MHB medium and incubated at 37° C. for 20 h, to provide a final density of 10^6 CFU·mL^−1. To obtain bacteria in the mid logarithmic phase of growth, the absorbance at 620 nm of overnight culture was adjusted of 0.001.
In the following the inventors of the present invention wanted to further elucidate the underlying mechanism that confer to the coatings of the invention the strong inhibitory property on the surface and in the supernatant. As an example the (PAR30/HA)24 coating was further investigated. Accordingly, the minimal inhibitory concentration (MIC) of PAR in solution was determined using bacterial assay as described in Experimental Section. […] Finally for PAR at concentrations of 0.01 mg·mL^−1, inhibition of 100% was shown only for PAR30. Longer or shorter PAR chains (PAR10, PAR100 or PAR200) inhibits only partially (less than 40%) S. aureus growth. […] This reasoning is valid when PAR concentration values are expressed in mass (mg·mL^−1) thus it is related to the number of arginine monomers. However when the graph is plotted with concentrations in μM (and thus proportional in number of chains), which means that concentration is related to number of chains, different interpretation can be made (Data not shown). […] Moreover the MIC100 values obtained for PAR30, PAR100 or PAR200 ranges at very low concentrations (between 1 and 2 μM) which is remarkable when compared to well-known antimicrobial peptides (for example 30 μM for cateslytin with S. aureus, see Adv. Funct. Mater. 2013, 23, 4801-4809). PAR is thus a powerful candidate to fight against S. aureus.

[3] = Release of PAR-FITC from (PAR30/HA)24 into the supernatant; format: physicochemical; conditions: after 24 h, from (PAR30/HA)24 built with PAR-FITC, 37° C.
Experimental: For the first experiment, a multilayer coating (PAR30/HA)24 was built by using PAR-FITC. Release experiments were performed at 37° C. during 24 h in presence of MHB medium or a S. aureus/MHB solution (A620=0.001). 300 μL of mineral oil were added on the top of the supernatant to prevent any evaporation during the monitoring. The release of PAR-FITC in solution was performed by measuring the fluorescence of the supernatant over time with a spectrofluorimeter (SAFAS Genius XC spectrofluorimeter, Monaco) with excitation/emission wavelength of 488/517 nm. Three samples were studied for each conditions.
In view of the absence of specific properties of PAR30 in solution compared to shorter or longer PAR chains, the antimicrobial abilities of PAR30/HA films should be related to the film property by itself. In this context, the inventors investigated if the bactericidal property of the film is due to the release of PAR30 chains from the multilayer into the solution or if bacteria need to come in contact with the film to be killed. For this purpose two types of experiments were performed. Using fluorescently labelled PAR30 chains we first determined the release of PAR30 chains into the solution containing solely MH medium with and without S. aureus. […] Finally, we also performed an experiment where bacteria were brought in contact with a (PAR30/HA)24 film for 24 hours. […]

S. aureus [4] = conditions: Adv. Funct. Mater. 2013, 23, 4801-4809; cited from earlier work
[5] = PAR concentrations up to 0.04 mg·mL^−1

| Substance | proportion of mobile PAR chains (mobile fraction) [1] | bacterial growth inhibition in solution (S. aureus [2]) | S. aureus growth inhibition in solution (S. aureus [2]; PAR 0.02 mg·mL^−1) | S. aureus growth inhibition in solution (in words) (S. aureus [2]; [5]) | S. aureus growth inhibition in solution (in words) (S. aureus [2]; PAR 0.02 mg·mL^−1) | concentration needed for a similar effect (about 90% inhibition) (S. aureus [2]; in solution, S. aureus) | times less active than PAR100 or PAR200 chains (from MICs in solution) (S. aureus [2]; hydrochloride) | PAR30 released into solution [3] | S. aureus growth inhibition in solution (S. aureus [2]; PAR 0.01 mg·mL^−1, hydrochloride) | MIC90 (S. aureus [2]; in solution, S. aureus) | MIC of a well-known antimicrobial peptide, compared with MIC100 of PAR (S. aureus [4]) |
| --- | --- | --- | --- | --- | --- | --- | --- | --- | --- | --- | --- |
| poly(I-arginine hydrochloride) [PAR200] | about 12% | about 90% | about 45% | totally inhibited |  |  |  |  |  |  |  |
| poly(I-arginine hydrochloride) [PAR10] | ~90% |  |  | totally inhibited | quasi total inhibition | about 10 μM | 10 times |  |  |  |  |
| poly(I-arginine hydrochloride) [PAR100] | 63% and 70% | about 90% |  | totally inhibited | quasi total inhibition |  |  |  |  |  |  |
| poly(I-arginine hydrochloride) [PAR30] |  |  |  | totally inhibited | quasi total inhibition | about 10 μM | 2 times | about 0.18 μM | 100% | about 2 μM |  |
| cateslytin |  |  |  |  |  |  |  |  |  |  | 30 µM |
